IC50 data for 24 compounds are collected here from US20070265278A1, “2-PHENYL-INDOLES AS PROSTAGLANDIN D2 RECEPTOR ANTAGONISTS” (Aventis Pharmaceuticals Inc., priority 2005, published 2007).

The target of the test is T1, DP receptor (Homo sapiens, UniProt Q13258).
T1 construct: using the human cell line LS174T, which expresses the endogenous DP receptor; endogenous in cells; host or cells: LS174T human cell line
T1 sequence (Q13258 1-359): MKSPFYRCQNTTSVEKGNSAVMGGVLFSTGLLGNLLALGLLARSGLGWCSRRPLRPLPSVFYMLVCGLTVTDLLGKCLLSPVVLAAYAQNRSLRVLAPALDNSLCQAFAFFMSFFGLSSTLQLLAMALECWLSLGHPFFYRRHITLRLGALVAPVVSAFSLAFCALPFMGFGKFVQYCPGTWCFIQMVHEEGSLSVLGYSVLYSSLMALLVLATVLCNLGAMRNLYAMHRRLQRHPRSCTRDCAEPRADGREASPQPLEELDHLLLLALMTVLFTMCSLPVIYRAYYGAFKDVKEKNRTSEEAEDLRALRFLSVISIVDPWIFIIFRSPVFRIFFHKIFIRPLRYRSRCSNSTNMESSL
The test can be described thus: SPA cAMP assay in human LS174 T cells (human DP functional assay). Type of test: cell-based. As to conditions: inhibition of PGD2 (15 nM)-stimulated cAMP, LS174T cells expressing endogenous DP receptor. The method, then:
The inhibitory effects of the compounds according to the invention are assessed in a human DP functional assay. A cAMP assay is employed using the human cell line LS174T, which expresses the endogenous DP receptor. The protocol is similar to that described previously (Wright D H, Ford-Hutchinson A W, Chadee K, Metters K M, The human prostanoid DP receptor stimulates mucin secretion in LS174T cells, Br J Pharmacol. 131(8):1537-45 (2000)).
Protocol for SPA cAMP Assay in Human LS174 T Cells
• PGD2 (Cayman Chemical Cat#12010) • IBMX (Sigma Cat# 5879) • cAMP SPA direct screening assay system (Amersham code RPA 559) • 96-well cell plates (Wallac Cat# 1450-516) • Wallac 1450 Microplate Trilux scintillation counter (PerkinElmer) • Plate sealers • Eppendorf tubes • Dulbecco's Phosphate-Buffered Saline (PBS) (Invitrogen Cat#14040-133) • Distilled water • Vortex • Magnetic stirrer and stirrer bars Reagent Preparation:
All reagents should be allowed to equilibrate to room temperature before reconstitution.
Transfer the contents of the bottle to a 500 mL graduated cylinder by repeated washing with distilled water. Adjust the final volume to 500 mL with distilled water and mix thoroughly.
Dissolve each of the lysis reagents 1 and 2 in 200 mL assay buffer respectively. Leave at room temperature for 20 minutes to dissolve.
Add 30 mL of lysis buffer 2 to the bottle. Gently shake the bottle for 5 minutes.
Add 15 mL of lysis buffer 2 to each vial, and gently mix until the contents are completely dissolved.
Add 14 mL lysis buffer 2 to each vial and gently mix until the contents are completely dissolved.
Preparation of Immunoreagent
• 1) Add equal volumes of tracer, antiserum and SPA anti-rabbit reagent to a bottle, ensuring that a sufficient volume of this mixture is prepared for the desired number of wells (150 μL/well). • 2) Mix thoroughly. • 3) This immunoreagent solution should be freshly prepared before each assay and not re-used. Standard • 1) Add 1 mL lysis buffer 1 and gently mix until contents are completely dissolved. • 2) The final solution contains cAMP at a concentration of 512 pmol/mL. • 3) Label 7 polypropylene or polystyrene tubes, 0.2 pmol, 0.4 pmol, 0.8 pmol, 1.6 pmol, 3.2 pmol, 6.4 pmol and 12.8 pmol. • 4) Pipette 500 μL of lysis buffer 1 into all the tubes. • 5) Into the 12.8 pmol tube pipette 500 μL of stock standard (512 pmol/mL) and mix thoroughly. Transfer 500 μL from 12.8 pmol tube to the 6.4 pmol tube and mix thoroughly. Repeat this doubling dilution successively with the remaining tubes.
6) 50 μL aliquots in duplicate from each serial dilution and the stock standard will give rise to 8 standard levels of cAMP ranging from 0.2-25.6 pmol standard
Add 50 μL of […] IBMX into 100 mL PBS to make a final concentration of 100 μM and sonicate at 30° C. for 20 minutes.
Dissolve 1 mg PGD2 (FW, 352.5) in 284 μL DMSO to make 10 mM stock solution and store at […]. Before each assay, it is freshly prepared. Add 3 μL of 10 mM stock solution to 20 mL DMSO, mix it thoroughly, and transfer 10 mL to 40 mL PBS.
Compound dilution is carried out in Biomex 2000 (Beckman) using Method 1_cAMP DP 11 points.
5 μL of each compound from the 10 mM stock compound plates is transferred to the wells of a 96-well plate respectively as below.
Fill the plate with 45 μL of DMSO except column 7 is filled with 28 μL DMSO. Pipette column 1 thoroughly, and transfer 12 μL into column 7 parallel. Perform 1:10 serial dilution from column 1 to column 6 and from column 7 to column 11 by transfer 5 μL to 45 μL DMSO to make following concentrations:
Fill a new 96-well plate with 247.5 μL of compound dilution buffer. Transfer 2.5 μL of serially diluted compounds from above plate to the new plate (1:100 dilution) as following:
Cell Growth • 1. LS174 T are always grown in MEM (ATCC Cat# 30-2003), 10% FBS (ATCC Cat# 30-2020) and additional 2 mM L-glutamine, at 37° C. and 5% CO2. • 2. Warm 0.05% Trypsin and Versine (Invitrogen Cat# 25300-054) at 37° C. water bath. • 3. […]
For orientation: cAMP levels reflect the balance of adenylyl cyclase and phosphodiesterase activity.
Regarding `O=C(O)Cc1c(-c2ccc(Cl)c(S(=O)(=O)NC3CC4CCC3C4)c2)[nH]c2ccccc12` (stereo not drawn) [Example 1(b), {2-[3-(Bicyclo[2.2.1]hept-2-ylsulfamoyl)-4-chloro-phenyl]-1H-indol-3-yl}-acetic acid], the concentration for half-maximal inhibition (IC50) – broadly, the midpoint of a concentration-inhibition curve – came out at 3 nM. In the case of `Cn1c(-c2ccc(Cl)c(S(=O)(=O)NC3CCCCC3)c2)c(CC(=O)O)c2ccccc21` [Example 2(a), [2-(4-Chloro-3-cyclohexylsulfamoyl-phenyl)-1-methyl-1H-indol-3-yl]-acetic acid] it was 52 nM; in that of `O=C(O)Cc1c(-c2ccc(Cl)c(NC(=O)C3CCCCC3)c2)[nH]c2ccccc12` [Example 14, {2-[4-chloro-3-(cyclohexanecarbonyl-amino)-phenyl]-1H-indol-3-yl}-acetic acid], 5860 nM.

Compound `COc1ccc2[nH]c(-c3ccc(Cl)c(S(=O)(=O)NC4CCCCC4)c3)c(CC(=O)O)c2c1` [Example 10(a), [2-(4-Chloro-3-cyclohexylsulfamoyl-phenyl)-5-methoxy-1H-indol-3-yl]-acetic acid] gave a half-inhibitory concentration (IC50) of 3 nM. With `CN(C1CCCCC1)S(=O)(=O)c1cc(-c2[nH]c3ccccc3c2CC(=O)O)ccc1Cl` [Example 1(x), {2-[4-Chloro-3-(cyclohexyl-methyl-sulfamoyl)-phenyl]-1H-indol-3-yl}-acetic acid] the figure was 346 nM. In the case of `O=C(O)Cc1c(-c2cccc(S(=O)(=O)NC3CCCCC3)c2)[nH]c2ccccc12` [Example 10(f), [2-(3-Cyclohexylsulfamoyl-phenyl)-1H-indol-3-yl]-acetic acid], the IC50 is 106 nM.

In turn, `NC(=O)Cc1c(-c2ccc(Cl)c(S(=O)(=O)NC3CCCCC3)c2)[nH]c2ccccc12` [Example 7(a), 2-[2-(4-Chloro-3-cyclohexylsulfamoyl-phenyl)-1H-indol-3-yl]-acetamide] returned an IC50 of 132 nM. This IC50 and that of the compound before are within 1.5-fold of each other. With `CC(C)(C)c1ccc2[nH]c(-c3ccc(Cl)c(S(=O)(=O)NC4CCCCC4)c3)c(CC(=O)O)c2c1` [Example 1(s), [5-tert-Butyl-2-(4-chloro-3-cyclohexylsulfamoyl-phenyl)-1H-indol-3-yl]-acetic acid] the figure was 4 nM; with `O=C(O)c1ccc2cc(-c3ccc(Cl)c(S(=O)(=O)NC4CCCCC4)c3)[nH]c2c1` [Example 16, 2-(4-Chloro-3-cyclohexylsulfamoyl-phenyl)-1H-indole-6-carboxylic acid], 510 nM; with `O=C(O)Cc1c(-c2ccc(Cl)c(S(=O)(=O)NCc3ccc(C(F)(F)F)cc3)c2)[nH]c2ccccc12` [Example 1(y), {2-[4-Chloro-3-(4-trifluoromethyl-benzylsulfamoyl)-phenyl]-1H-indol-3-yl}-acetic acid], 19 nM. With `CN(C1CCCCC1)S(=O)(=O)c1cccc(-c2[nH]c3ccccc3c2CC(=O)O)c1` [Example 10(e), {2-[3-(Cyclohexyl-methyl-sulfamoyl)-phenyl]-1H-indol-3-yl}-acetic acid] the figure was 346 nM; with `O=C(O)Cc1c(-c2ccc(Cl)c(S(=O)(=O)NC3CCCCC3)c2)[nH]c2ccc(O)cc12` [Example 10(c), [2-(4-Chloro-3-cyclohexylsulfamoyl-phenyl)-5-hydroxy-1H-indol-3-yl]-acetic acid], 4.2 nM; with `Cn1c(-c2ccc(Cl)c(S(=O)(=O)NC3CCCCC3)c2)c(CCO)c2ccccc21` [Example 9, 2-Chloro-N-cyclohexyl-5-[3-(2-hydroxy-ethyl)-1-methyl-1H-indol-2-yl]-benzenesulfonamide], 8710 nM. With `Cc1ccc(-c2[nH]c3ccccc3c2CC(=O)O)cc1S(=O)(=O)NC1CCCCC1` [Example 10(k), [2-(3-Cyclohexylsulfamoyl-4-methyl-phenyl)-1H-indol-3-yl]-acetic acid] the figure was 2 nM. For the compound `O=C(O)Cc1c(-c2ccc(Cl)c(S(=O)(=O)NC3CCOCC3)c2)[nH]c2ccccc12` [Example 1(o), {2-[4-Chloro-3-(tetrahydro-pyran-4-ylsulfamoyl)-phenyl]-1H-indol-3-yl}-acetic acid], the IC50 is 52 nM. This IC50 lies about 26-fold higher than the previous one. In the case of `O=C(O)Cc1c(-c2ccc(Cl)c(S(=O)(=O)NC3CCCCC3)c2)n(Cc2ccccc2)c2ccccc12` [Example 2(b), [1-Benzyl-2-(4-chloro-3-cyclohexylsulfamoyl-phenyl)-1H-indol-3-yl]-acetic acid] it was 42 nM; in that of `O=C(O)Cc1c(-c2ccc(Cl)c(S(=O)(=O)NC3CCCCC3)c2)[nH]c2ccccc12` [Example 1(a), [2-(4-Chloro-3-cyclohexylsulfamoyl-phenyl)-1H-indol-3-yl]-acetic acid], 2.2 nM. With `O=C(Cc1c(-c2ccc(Cl)c(S(=O)(=O)NC3CCCCC3)c2)[nH]c2ccccc12)NS(=O)(=O)c1ccccc1` [Example 6, 5-[3-(2-Benzenesulfonylamino-2-oxo-ethyl)-1H-indol-2-yl]-2-chloro-N-cyclohexyl benzenesulfonamide] the figure was 5 nM; with `O=C(O)Cc1c(-c2ccc(Cl)c(S(=O)(=O)NCCC3CCCCC3)c2)[nH]c2ccccc12` [Example 1(h), {2-[4-Chloro-3-(2-cyclohexyl-ethylsulfamoyl)-phenyl]-1H-indol-3-yl}-acetic acid], 35 nM. In the case of `O=C(O)Cc1c(-c2ccc(Cl)c(S(=O)(=O)NC3CCCCC3)c2)[nH]c2ccc(OC(F)(F)F)cc12` [Example 1(v), [2-(4-Chloro-3-cyclohexylsulfamoyl-phenyl)-5-trifluoromethoxy-1H-indol-3-yl]-acetic acid] it was 4.2 nM; in that of `O=C(O)Cc1c(-c2ccc(Cl)c(S(=O)(=O)NC3Cc4ccccc4C3)c2)[nH]c2ccccc12` [Example 1(d), {2-[4-Chloro-3-(indan-2-ylsulfamoyl)-phenyl]-1H-indol-3-yl}-acetic acid], 9.6 nM; in that of `O=C(O)Cc1c(-c2ccc(S(=O)(=O)NC3CCCCC3)c(Cl)c2)[nH]c2ccccc12` [Example 10(j), [2-(3-Chloro-4-cyclohexylsulfamoyl-phenyl)-1H-indol-3-yl]-acetic acid], 1220 nM. As for `CCCCCCNS(=O)(=O)c1cc(-c2[nH]c3ccccc3c2CC(=O)O)ccc1Cl` [Example 1(c), [2-(4-Chloro-3-hexylsulfamoyl-phenyl)-1H-indol-3-yl]-acetic acid], inhibition was half-maximal at 31 nM (IC50). With `O=C(O)Cc1c(-c2cc(C(F)(F)F)cc(S(=O)(=O)NC3CCCCC3)c2)[nH]c2ccccc12` [Example 12, [2-(3-cyclohexylsulfamoyl-5-trifluoromethyl-phenyl)-1H-indol-3-yl]-acetic acid], the 50% inhibitory concentration (IC50) came to 232 nM.
